Assay results reported in patent US11739098B2 (BRISTOL-MYERS SQUIBB COMPANY, priority 2017, dated 2023).

What was measured:
Type in all cases: cell-based
human TLR7 = biological target: T1, human TLR7 (Homo sapiens, UniProt Q9NYK1); assay: TLR7 inhibition reporter assay (HEK-Blue cells, SEAP reporter, gardiquimod stimulation); conditions: HEK-Blue cells overexpressing human TLR7, SEAP reporter, gardiquimod 7.5 μM
T1 construct: host or cells: HEK-Blue cells (HEK293-derived reporter line)
T1 sequence (Q9NYK1 27-1049): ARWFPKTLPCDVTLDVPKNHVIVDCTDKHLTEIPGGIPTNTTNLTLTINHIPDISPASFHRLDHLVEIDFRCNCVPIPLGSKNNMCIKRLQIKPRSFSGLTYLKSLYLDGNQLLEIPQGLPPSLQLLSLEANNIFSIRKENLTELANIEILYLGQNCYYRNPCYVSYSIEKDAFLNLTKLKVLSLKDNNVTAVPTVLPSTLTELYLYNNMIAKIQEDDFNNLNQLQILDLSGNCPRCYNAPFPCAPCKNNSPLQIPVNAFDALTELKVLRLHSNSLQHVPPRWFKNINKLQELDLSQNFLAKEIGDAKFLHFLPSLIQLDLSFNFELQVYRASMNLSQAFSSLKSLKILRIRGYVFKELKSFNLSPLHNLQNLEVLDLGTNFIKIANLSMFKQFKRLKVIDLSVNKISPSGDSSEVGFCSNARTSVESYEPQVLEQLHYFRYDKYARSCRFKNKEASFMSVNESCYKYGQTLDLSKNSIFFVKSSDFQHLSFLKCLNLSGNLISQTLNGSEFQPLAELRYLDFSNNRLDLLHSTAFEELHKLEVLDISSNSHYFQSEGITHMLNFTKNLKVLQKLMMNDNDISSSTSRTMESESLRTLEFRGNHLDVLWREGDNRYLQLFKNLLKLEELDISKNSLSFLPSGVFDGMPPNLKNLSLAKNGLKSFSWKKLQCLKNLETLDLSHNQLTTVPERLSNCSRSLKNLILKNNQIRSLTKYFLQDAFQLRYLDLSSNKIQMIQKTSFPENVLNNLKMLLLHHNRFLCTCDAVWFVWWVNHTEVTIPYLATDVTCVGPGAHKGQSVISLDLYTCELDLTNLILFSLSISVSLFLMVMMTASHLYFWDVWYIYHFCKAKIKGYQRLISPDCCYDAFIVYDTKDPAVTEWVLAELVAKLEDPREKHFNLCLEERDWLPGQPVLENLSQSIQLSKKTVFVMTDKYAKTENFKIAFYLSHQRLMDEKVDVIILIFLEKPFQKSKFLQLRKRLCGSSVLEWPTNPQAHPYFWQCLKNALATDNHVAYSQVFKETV
Method in brief: (§1)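 HEK-Blue cells overexpressing the receptor, with NF-κB/AP-1-driven SEAP, were pre-treated 30 min at room temperature with compound (0.05 nM–50 μM), then stimulated with gardiquimod 7.5 μM (TLR7), R848 15.9 μM (TLR8) or ODN2006 5 nM (TLR9). SEAP was read after 22 h at 37 °C as percent inhibition.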

human TLR8 = biological target: T2, human TLR8 (Homo sapiens, UniProt Q9NR97); assay: TLR8 inhibition reporter assay (HEK-Blue cells, SEAP reporter, R848 stimulation); conditions: HEK-Blue cells overexpressing human TLR8, SEAP reporter, R848 15.9 μM
T2 construct: host or cells: HEK-Blue cells (HEK293-derived reporter line)
T2 sequence (Q9NR97 27-1041): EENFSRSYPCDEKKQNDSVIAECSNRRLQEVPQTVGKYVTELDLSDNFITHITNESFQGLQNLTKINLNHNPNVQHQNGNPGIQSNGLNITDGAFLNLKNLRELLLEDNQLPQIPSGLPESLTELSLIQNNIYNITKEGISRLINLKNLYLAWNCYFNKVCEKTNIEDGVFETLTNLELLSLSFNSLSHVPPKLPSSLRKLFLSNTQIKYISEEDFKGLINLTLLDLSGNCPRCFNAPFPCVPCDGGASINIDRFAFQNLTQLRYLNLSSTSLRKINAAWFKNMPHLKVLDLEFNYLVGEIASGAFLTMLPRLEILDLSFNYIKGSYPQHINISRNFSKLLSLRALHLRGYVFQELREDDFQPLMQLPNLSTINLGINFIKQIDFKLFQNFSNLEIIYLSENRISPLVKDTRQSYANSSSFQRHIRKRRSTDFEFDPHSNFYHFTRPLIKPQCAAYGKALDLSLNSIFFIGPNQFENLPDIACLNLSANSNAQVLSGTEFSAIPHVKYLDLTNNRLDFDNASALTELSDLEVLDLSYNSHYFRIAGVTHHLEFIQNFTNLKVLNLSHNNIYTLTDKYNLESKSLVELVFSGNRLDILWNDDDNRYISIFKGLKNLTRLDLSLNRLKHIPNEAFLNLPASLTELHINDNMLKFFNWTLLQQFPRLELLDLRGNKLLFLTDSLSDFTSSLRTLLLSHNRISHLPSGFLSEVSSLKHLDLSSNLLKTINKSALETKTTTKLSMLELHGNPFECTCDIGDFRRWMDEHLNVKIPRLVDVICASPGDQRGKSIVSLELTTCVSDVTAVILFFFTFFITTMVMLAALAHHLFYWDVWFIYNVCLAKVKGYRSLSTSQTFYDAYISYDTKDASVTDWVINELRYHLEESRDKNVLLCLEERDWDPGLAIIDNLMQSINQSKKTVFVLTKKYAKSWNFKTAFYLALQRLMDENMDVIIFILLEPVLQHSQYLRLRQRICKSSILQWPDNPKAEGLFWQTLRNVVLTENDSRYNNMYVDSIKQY
Method in brief: as §1

human TLR9 = biological target: T3, human TLR9 (Homo sapiens, UniProt Q9NR96); assay: TLR9 inhibition reporter assay (HEK-Blue cells, SEAP reporter, ODN2006 stimulation); conditions: HEK-Blue cells overexpressing human TLR9, SEAP reporter, ODN2006 5 nM
T3 construct: host or cells: HEK-Blue cells (HEK293-derived reporter line)
T3 sequence (Q9NR96 26-1032): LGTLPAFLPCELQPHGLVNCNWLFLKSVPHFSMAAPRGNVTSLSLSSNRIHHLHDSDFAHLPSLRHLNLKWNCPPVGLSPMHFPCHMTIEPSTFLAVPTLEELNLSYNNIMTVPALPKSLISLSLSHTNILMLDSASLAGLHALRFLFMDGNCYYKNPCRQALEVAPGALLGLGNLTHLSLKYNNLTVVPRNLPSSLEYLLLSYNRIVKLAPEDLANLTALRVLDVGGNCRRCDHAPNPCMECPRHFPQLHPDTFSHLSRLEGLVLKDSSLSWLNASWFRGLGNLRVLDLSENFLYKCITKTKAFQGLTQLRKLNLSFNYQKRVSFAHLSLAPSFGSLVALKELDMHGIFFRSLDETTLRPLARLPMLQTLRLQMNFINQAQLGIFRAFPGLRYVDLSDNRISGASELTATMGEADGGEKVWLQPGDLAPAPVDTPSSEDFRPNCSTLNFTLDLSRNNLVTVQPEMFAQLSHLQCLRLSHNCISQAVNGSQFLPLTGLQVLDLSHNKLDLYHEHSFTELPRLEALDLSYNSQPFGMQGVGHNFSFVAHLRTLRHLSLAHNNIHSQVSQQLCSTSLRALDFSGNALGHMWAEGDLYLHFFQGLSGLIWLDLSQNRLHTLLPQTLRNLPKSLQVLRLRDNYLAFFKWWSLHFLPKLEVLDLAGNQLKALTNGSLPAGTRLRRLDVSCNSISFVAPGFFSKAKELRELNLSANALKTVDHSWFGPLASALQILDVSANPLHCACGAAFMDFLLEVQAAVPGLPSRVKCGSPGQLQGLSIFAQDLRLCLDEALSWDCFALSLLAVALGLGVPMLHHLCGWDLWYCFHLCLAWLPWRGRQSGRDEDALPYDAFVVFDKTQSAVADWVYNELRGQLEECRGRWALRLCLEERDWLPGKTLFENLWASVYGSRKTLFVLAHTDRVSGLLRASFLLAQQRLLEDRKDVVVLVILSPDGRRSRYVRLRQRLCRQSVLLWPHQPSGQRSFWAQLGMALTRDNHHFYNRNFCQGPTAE
Method in brief: as §1

Row | Compound | IC50 (human TLR7) | IC50 (human TLR8) | IC50 (human TLR9)
1 | Cc1cc(-c2[nH]c3ccc(C4CCN(C(=O)CN(C)C)CC4)cc3c2C(C)C)cc2cccnc12 [Example 529, 2-(dimethylamino)-1-(4-(3-isopropyl-2-(8-methylquinolin-6-yl)-1H-indol-5-yl)piperidin-1-yl) ethan-1-one] | < 0.1 µM | < 0.1 µM | 1 to 50 µM
2 | Cc1cc(-c2[nH]c3ccc(C4CCN(C(=O)CN(C)C)CC4)cc3c2C(C)C)cc2ccnn12 [Example 570, 2-(dimethylamino)-1-(4-(3-isopropyl-2-(7-methylpyrazolo[1,5-a]pyridin-5-yl)-1H-indol-5-yl)piperidin-1-yl)ethan-1-one] | < 0.1 µM | < 0.1 µM | 1 to 50 µM
3 | CC(C)c1c(-c2ccn3nncc3c2)[nH]c2ccc(C3CCN(C4CCOCC4)CC3)cc12 [Example 696, 5-(3-isopropyl-5-(1-(tetrahydro-2H-pyran-4-yl)piperidin-4-yl)-1H-indol-2-yl)-[1,2,3]triazolo[1,5-a]pyridine] | < 0.1 µM | 0.1 to 1 µM | 1 to 50 µM
4 | Cc1cc(-c2[nH]c3ccc(C4CCN(C(=O)CCN5C[C@H]6CC[C@@H](C5)O6)CC4)cc3c2C(C)C)cn2nnnc12 [Example 622, 3-((1R,5S)-8-oxa-3-azabicyclo[3.2.1]octan-3-yl)-1-(4-(3-isopropyl-2-(8-methyltetrazolo[1,5-a]pyridin-6-yl)-1H-indol-5-yl)piperidin-1-yl)propan-1-one] | < 0.1 µM | < 0.1 µM | 1 to 50 µM
5 | Cc1c(-c2ccnc3[nH]cnc23)[nH]c2ccc(C3CCNCC3)cc12 [Example 60, 7-(3-methyl-5-(piperidin-4-yl)-1H-indol-2-yl)-3H-imidazo[4,5-b]pyridine] | < 0.1 µM | 0.1 to 1 µM | 0.1 to 1 µM
6 | Cc1cc2nnnn2cc1-c1[nH]c2ccc(C3CCN(CC(N)=O)CC3)cc2c1C(C)C [Example 315, 2-(4-(3-isopropyl-2-(7-methyltetrazolo[1,5-a]pyridin-6-yl)-1H-indol-5-yl)piperidin-1-yl)acetamide] | < 0.1 µM | < 0.1 µM | 1 to 50 µM
7 | CC(C)c1c(-c2cccn3ncnc23)[nH]c2ccc(C3CCN(CC(C)(C)O)CC3)cc12 [Example 760, 1-(4-(2-([1,2,4]triazolo[1,5-a]pyridin-8-yl)-3-isopropyl-1H-indol-5-yl)piperidin-1-yl)-2-methylpropan-2-ol] | 0.1 to 1 µM | < 0.1 µM | 1 to 50 µM
8 | Cc1cc(-c2[nH]c3ccc(C4CCN(C(=O)CN(C)C)CC4)cc3c2C(C)C)cc2nccn12 [Example 500, 2-(dimethylamino)-1-(4-(3-isopropyl-2-(5-methylimidazo[1,2-a]pyridin-7-yl)-1H-indol-5-yl)piperidin-1-yl)ethan-1-one] | 0.1 to 1 µM | 0.1 to 1 µM | 0.1 to 1 µM
9 | Cc1c(-c2[nH]c3ccc(C4CCNCC4)cc3c2C(C)C)nn2ncnc2c1C [Example 32, 6-(3-isopropyl-5-(piperidin-4-yl)-1H-indol-2-yl)-7,8-dimethyl-[1,2,4]triazolo[1,5-b]pyridazine] | < 0.1 µM | < 0.1 µM | 1 to 50 µM

More lines, now with the values ahead:

Row | IC50 (human TLR7) | IC50 (human TLR8) | IC50 (human TLR9) | Compound
10 | < 0.1 µM | 0.1 to 1 µM | 1 to 50 µM | CC(C)c1c(-c2ccnc3[nH]ncc23)[nH]c2cc(C(F)(F)F)c(C3CCNCC3)cc12 [Example 249, 4-(3-isopropyl-5-(piperidin-4-yl)-6-(trifluoromethyl)-1H-indol-2-yl)-1H-pyrazolo[3,4-b]pyridine]
11 | < 0.1 µM | < 0.1 µM | 0.1 to 1 µM | CNCCN1CCC(c2ccc3[nH]c(-c4ccnc5[nH]ncc45)c(C(C)C)c3c2)C(F)C1 (stereo not drawn) [Example 677, 2-(3-fluoro-4-(3-isopropyl-2-(1H-pyrazolo[3,4-b]pyridin-4-yl)-1H-indol-5-yl)piperidin-1-yl)-N-methylethan-1-amine]
12 | < 0.1 µM | 0.1 to 1 µM | 1 to 50 µM | Cc1nc2cc(-c3[nH]c4ccc(C5CCN(C(=O)CN(C)C)CC5)cc4c3C(C)C)ccn2n1 [Example 538, 2-(dimethylamino)-1-(4-(3-isopropyl-2-(2-methyl-[1,2,4]triazolo[1,5-a]pyridin-7-yl)-1H-indol-5-yl)piperidin-1-yl)ethan-1-one]
13 | < 0.1 µM | 1 to 50 µM | 1 to 50 µM | Cc1nn2ccc(-c3[nH]c4ccc(C5CCN(CC(=O)N(C)C)CC5)cc4c3C(C)C)cc2c1F [Example 399, 2-(4-(2-(3-fluoro-2-methylpyrazolo[1,5-a]pyridin-5-yl)-3-isopropyl-1H-indol-5-yl)piperidin-1-yl)-N,N-dimethylacetamide]
14 | < 0.1 µM | < 0.1 µM | 1 to 50 µM | CC(C)c1c(-c2ccc3nccn3n2)[nH]c2ccc(C3CCNCC3)cc12 [Example 27, 6-(3-isopropyl-5-(piperidin-4-yl)-1H-indol-2-yl)imidazo[1,2-b]pyridazine]
